Laboratory results reported in PMC6792352, “Limited Chemical Structural Diversity Found to Modulate Thyroid Hormone Receptor in the Tox21 Chemical Library” (Environmental Health Perspectives, 2019).
Where a name gives a salt, the structure may show the parent alone.

Test: in vitro
Conditions: rat, gh3-tre-luc cells

Row | Compound | CC50 at 24 h (AC50 (uM) modified / 1000) [µM] | other results
1 | CN1[C@@H]2CC[C@H]1CC(O)C2 (stereo partly shown) [Tropine] | – | CC50 at 24 h (AC50 (uM) modified / 1000, Tox21_110001=Tox21_202725, viability, 1 nM T3 present, 24 h): > 100 µM
2 | CCC(Cc1ccccc1)(C(=O)c1ccc(N2CCOCC2)cc1)N(C)C (stereo not shown) [2-Benzyl-2-(dimethylamino)-1-[4-(morpholin-4-yl)phenyl]butan-1-one] | 68.2 | –
3 | COc1ccc(C2C(=O)c3ccccc3C2=O)cc1 [Anisindione] | > 50 | –
4 | O=C1C2(Cl)C3(Cl)C4(Cl)C(Cl)(Cl)C5(Cl)C3(Cl)C1(Cl)C5(Cl)C24Cl (stereo not shown) [Kepone] | – | CC50 at 24 h (AC50 (uM) modified / 1000, Tox21_110001=Tox21_201592, viability, 1 nM T3 present, 24 h): 11.6 µM; CC50 at 24 h (AC50 (uM) modified / 1000, Tox21_110001=Tox21_300098, viability, 1 nM T3 present, 24 h): 10.7 µM
5 | CC1(C)[C@H](/C=C(\Cl)C(F)(F)F)[C@@H]1C(=O)O[C@@H](C#N)c1cccc(Oc2ccccc2)c1 [?-Cyhalothrin] | > 80 | –
6 | CCC1(CO)COCOC1 [(5-Ethyl-1,3-dioxan-5-yl)methanol] | > 90 | –
7 | O=C(O)c1snc(Cl)c1Cl [3,4-Dichloro-5-isothiazolecarboxylic acid] | > 90 | –
8 | CC(=O)O[C@@H]1C(=O)O[C@H]2[C@@H]1OC(=O)[C@@H]2OC(C)=O [Aceglatone] | > 50 | –
9 | FC(F)(F)C(F)(F)C(F)(F)C(F)(F)C(F)(F)F [Perflenapent] | > 50 | –
10 | C=CCSCC1Nc2cc(Cl)c(S(N)(=O)=O)cc2S(=O)(=O)N1 (stereo not shown) [Althiazide] | > 50 | –
11 | COc1cc2c(cc1OC)[C@@H](Cc1cc(OC)c(OC)c(OC)c1)[N+](C)(CCCOC(=O)CC/C=C/CCC(=O)OCCC[N+]1(C)CCc3cc(OC)c(OC)cc3[C@H]1Cc1cc(OC)c(OC)c(OC)c1)CC2 (stereo partly shown) [Mivacurium chloride] | > 50 | –
12 | CN(C)c1ccc(C(c2ccccc2)c2ccc(N(C)C)cc2)cc1 [Leucomalachite green] | – | CC50 at 24 h (AC50 (uM) modified / 1000, Tox21_110001=Tox21_302103, viability, 1 nM T3 present, 24 h): > 90 µM
13 | CCOC(=O)CS [Acetic acid,mercapto-,ethylester] | > 90 | –
14 | NC(=O)Nc1ccccc1 [1-Phenylurea] | > 90 | –
15 | O=C(O)c1ccccc1S [2-Thiosalicylic acid] | > 50 | –
16 | CCCC(C)C(=O)OCC (stereo not shown) [Ethyl 2-methylpentanoate] | > 90 | –
17 | NC(=O)NNC(N)=O [Biurea] | > 90 | –
18 | CCNc1cc(O)ccc1C [3-Ethylamino-4-methylphenol] | > 90 | –
19 | Fc1ccc(Oc2ccnc3cc(Cl)cc(Cl)c23)cc1 [Quinoxyfen] | 74.9 | –
20 | CCCCCCCCCC(=O)NO [Decanohydroxamic acid] | > 50 | –
21 | Clc1cccc(Cl)c1Cl [1,2,3-Trichlorobenzene] | > 90 | –
22 | COc1ccc(-c2nc3ccc(C4=NNC(=O)CC4C)cc3[nH]2)cc1 (stereo not shown) [Pimobendan hydrochloride] | 36.4 | –
23 | O=C1c2cccc3c2[C@H](CCC3)CN1[C@@H]1CN2CCC1CC2 [Palonosetron hydrochloride] | 23.5 | –

Row | Compound | CC50 at 24 h (AC50 (uM) modified / 1000) [µM] | other results
24 | CC(C)(C)c1ccccc1OP(=O)(Oc1ccccc1)Oc1ccccc1 [tert-Butylphenyl diphenyl phosphate] | – | CC50 at 24 h (AC50 (uM) modified / 1000, Tox21_110001=Tox21_202980, viability, 1 nM T3 present, 24 h): > 90 µM
25 | Cc1cc(O)c(C(C)C)cc1Cl [6-Chlorothymol] | 66.1 | –
26 | CC(C)CCC[C@@H](C)[C@H]1CC[C@H]2[C@@H]3CC=C4C[C@@H](O)CC[C@]4(C)[C@H]3CC[C@]12C [Cholesterol] | > 50 | –
27 | COc1ccccc1N1CCN(CCCNc2cc(=O)n(C)c(=O)n2C)CC1 [Urapidil] | > 50 | –
28 | NS(=O)(=O)c1cc(-c2nnn[nH]2)c(NCc2cccs2)cc1Cl [Azosemide] | > 50 | –
29 | C=CC(=O)OC(C)(C)C [tert-Butyl acrylate] | > 90 | –
30 | CCCOc1ccc2nc(NC(=O)OC)[nH]c2c1 [Oxibendazole] | 0.527 | –
31 | COP(=S)(OC)Oc1cc(Cl)c(Br)cc1Cl [Bromofos] | – | CC50 at 24 h (AC50 (uM) modified / 1000, Tox21_110001=Tox21_301918, viability, 1 nM T3 present, 24 h): > 90 µM
32 | CC(C)(N=C=O)c1cccc(C(C)(C)N=C=O)c1 [1,3-Bis(2-isocyanato-2-propyl)benzene] | 78.6 | –
33 | CCN(Cc1cccc(S(=O)(=O)O)c1)c1ccc(C(=C2C=CC(=[N+](CC)Cc3cccc(S(=O)(=O)O)c3)C=C2)c2ccccc2S(=O)(=O)[O-])cc1 [FD&C Blue No. 1] | 50.7 | –
34 | N#CCBr [Bromoacetonitrile] | > 100 | –
35 | CC(COc1ccccc1)NC(C)C(O)c1ccc(O)cc1 (stereo not shown) [Isoxsuprine hydrochloride] | > 20 | –
36 | CCCCCCCCCC=O [Decanal] | > 90 | –
37 | O=C(Nc1ccc([N+](=O)[O-])cc1)Nc1ccc([N+](=O)[O-])cc1 [4,4'-Dinitrodiphenylurea] | > 50 | –
38 | FC(F)(F)c1cccc(Cl)c1 [3-Chlorobenzotrifluoride] | > 90 | –
39 | CC(=O)c1ccc2c(c1)N(CCCN1CCC(CCO)CC1)c1ccccc1S2 [Piperacetazine] | 10.7 | –
40 | Oc1ccc(Cc2ccccc2O)cc1 [2-(4-Hydroxybenzyl)phenol] | > 90 | –
41 | CCN1CCC2(CC1)COc1cc3c(cc12)N(C(=O)c1ccc(-c2ccc(-c4nnc(C)o4)cc2C)cc1)CC3 [SB236057A] | 3 | –
42 | O=C(O)CBr [Bromoacetic acid] | – | CC50 at 24 h (AC50 (uM) modified / 1000, Tox21_110001=Tox21_200657, viability, 1 nM T3 present, 24 h): > 90 µM
43 | O=P(O)(O)OC[C@H](O)CO [sn-Glycerol 3-phosphate bis(cyclohexylammonium)] | > 50 | –
44 | CCCCC(CC)COCC1CO1 (stereo not shown) [2-Ethylhexyl glycidyl ether] | > 90 | –
45 | CCCCCCC(C)Nc1ccc(Nc2ccccc2)cc1 (stereo not shown) [N-(1-Methylheptyl)-N'-phenyl-1,4-benzenediamine] | 35.9 | –
46 | NC1=NC(=O)C(c2ccccc2)O1 (stereo not shown) [Pemoline] | – | CC50 at 24 h (AC50 (uM) modified / 1000, Tox21_110001=Tox21_112509, viability, 1 nM T3 present, 24 h): > 50 µM

Row | Compound | CC50 at 24 h (AC50 (uM) modified / 1000) [µM] | other results
47 | CCOC(=O)CC(=O)c1cc(F)c(Cl)nc1Cl [Ethyl 2,6-dichloro-5-fluoro-?-oxo-3-pyridinepropionate] | > 90 | –
48 | COc1cc(C[C@@H](C)N)c(OC)cc1C [R-(-)-2,5-Dimethoxy-4-methylamphetamine hydrochloride] | 41.9 | –
49 | CCOC(=O)c1ccccc1C [Ethyl 2-methylbenzoate] | > 90 | –
50 | C=CC(=O)OCCCCCCCC(C)C [Isodecyl acrylate] | > 90 | –
51 | CCN(CC)CCC(=O)N1c2ccccc2Sc2ccc(C(F)(F)F)cc21 [Fluacizine] | 20.5 | –
52 | O=C1N=C2SCCN2C(=O)C1Cc1ccc(Cl)cc1 (stereo not shown) [Nuclomedone] | > 50 | –
53 | O=[N+]([O-])c1ccccc1C(F)(F)F [1-Nitro-2-(trifluoromethyl)benzene] | > 90 | –
54 | Brc1ccc(Oc2ccc(Br)cc2Br)c(Br)c1 [2,2'4,4'-Tetrabromodiphenyl ether] | – | CC50 at 24 h (AC50 (uM) modified / 1000, Tox21_110001=Tox21_200327, viability, 1 nM T3 present, 24 h): 83.3 µM
55 | CS(=O)(=O)Cl [Methanesulfonyl chloride] | > 90 | –
56 | Oc1cc(Cl)c(Cl)c(Cl)c1 [3,4,5-Trichlorophenol] | 29.9 | –
57 | COc1ccc(C(=O)Nc2ccccc2)cc1[N+](=O)[O-] [4-Methoxy-3-nitro-N-phenylbenzamide] | > 90 | –
58 | O=C(c1ccccc1)c1ccccc1O [2-Hydroxybenzophenone] | > 90 | –
59 | ClC1(Cl)C2(Cl)C3(Cl)C4(Cl)C(Cl)(Cl)C5(Cl)C3(Cl)C1(Cl)C5(Cl)C24Cl (stereo not shown) [Mirex] | – | CC50 at 24 h (AC50 (uM) modified / 1000, Tox21_110001=Tox21_300592, viability, 1 nM T3 present, 24 h): > 90 µM
60 | Nc1ccn(C[C@@H](CO)OCP(=O)(O)O)c(=O)n1 [Cidofovir] | > 50 | –
61 | COc1ccc(Cc2cnc(N)nc2N)cc1OC [Diaveridine] | > 50 | –
62 | CCOP(=S)(OCC)SCSC(C)(C)C [Terbufos] | – | CC50 at 24 h (AC50 (uM) modified / 1000, Tox21_110001=Tox21_201634, viability, 1 nM T3 present, 24 h): > 90 µM
63 | CC(C)C(C(=O)OC(C#N)c1cccc(Oc2ccccc2)c1)c1ccc(OC(F)F)cc1 (stereo not shown) [Flucythrinate] | > 90 | –
64 | COc1cc(C(C)C)c2c(c1)S(=O)(=O)N(COc1cc(=O)n3cccc(OCCN4CCCCC4)c3n1)C2=O [SSR69071] | 11.9 | –
65 | CCOC(=O)c1ccccc1 [Ethyl benzoate] | > 90 | –
66 | CO/N=C(\C(=O)N[C@@H]1C(=O)N2C(C(=O)O)=C(COC(C)=O)CS[C@H]12)c1csc(N)n1 [Cefotaxime sodium] | > 50 | –
67 | C=CC(C)(O)CC/C=C(\C)CCC=C(C)C (stereo not shown) [Nerolidol] | > 90 | –
68 | CCCCC(CC)COC(=O)c1ccccc1O (stereo not shown) [2-Ethylhexyl salicylate] | > 50 | –
69 | COCC(O)CO (stereo not shown) [1-O-Methylglycerol] | > 100 | –
